Test results as given in the supplement of paper PMC10307832.

Columns and labels:
Test in all cases: relative viability (nuclei count vs DMSO), 5 days (fraction); higher = more cells survive
A549 = tested on: A549
Method in brief: (§1)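 Dosing by pin tool came one day after lung cancer cell lines were seeded in 1536-well plates, using either one drug or a fixed anchor-drug dose plus five library-drug doses (not always all listed) in √10 steps. After 5 days, nuclei were counted on 4× images. Relative viability is treated-well nuclei count divided by vehicle-well nuclei count, and values are medians of duplicate plates.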

NCI-H1623 = tested on: NCI-H1623
Method in brief: as §1

IA-LM = tested on: IA-LM
Method in brief: as §1

NCI-H1299 = tested on: NCI-H1299
Method in brief: as §1

LCLC-103H = tested on: LCLC-103H
Method in brief: as §1

Calu-6 = tested on: Calu-6
Method in brief: as §1

NCI-H1703 = tested on: NCI-H1703
Method in brief: as §1

NCI-H1355 = tested on: NCI-H1355
Method in brief: as §1

NCI-H520 = tested on: NCI-H520
Method in brief: as §1

EBC-1 = tested on: EBC-1
Method in brief: as §1

NCI-H522 = tested on: NCI-H522
Method in brief: as §1

Question: What does the source list for CC1(C)CCC(c2ccc(Cl)cc2)=C(CN2CCN(c3ccc(C(=O)NS(=O)(=O)c4ccc(N[C@H](CCN5CCOCC5)CSc5ccccc5)c(S(=O)(=O)C(F)(F)F)c4)cc3)CC2)C1 [Navitoclax] + COc1cc2c(Oc3ccc(NC(=O)C4(C(=O)Nc5ccc(F)cc5)CC4)cc3F)ccnc2cc1OCCCN1CCOCC1 [Foretinib] (partner 0.25 µM)?
Answer: relative viability (A549; first compound 0.005 µM): 0.887; relative viability (A549; first compound 0.01581 µM): 1.03; relative viability (A549; first compound 0.05 µM): 0.994; relative viability (A549; first compound 0.1581 µM): 1.02; relative viability (A549; first compound 0.5 µM): 0.916; relative viability (NCI-H1623; first compound 0.005 µM): 0.863; relative viability (NCI-H1623; first compound 0.01581 µM): 0.981; relative viability (NCI-H1623; first compound 0.05 µM): 0.781; relative viability (NCI-H1623; first compound 0.1581 µM): 0.842; relative viability (NCI-H1623; first compound 0.5 µM): 0.811; relative viability (IA-LM; first compound 0.005 µM): 1.18; relative viability (IA-LM; first compound 0.01581 µM): 1.2; relative viability (IA-LM; first compound 0.05 µM): 1.36; relative viability (IA-LM; first compound 0.1581 µM): 1.27; relative viability (IA-LM; first compound 0.5 µM): 1.18; relative viability (NCI-H1299; first compound 0.005 µM): 1.1; relative viability (NCI-H1299; first compound 0.01581 µM): 1.1; relative viability (NCI-H1299; first compound 0.05 µM): 1.12; relative viability (NCI-H1299; first compound 0.1581 µM): 1.11; relative viability (NCI-H1299; first compound 0.5 µM): 1.11; relative viability (LCLC-103H; first compound 0.005 µM): 0.676; relative viability (LCLC-103H; first compound 0.01581 µM): 0.934; relative viability (LCLC-103H; first compound 0.05 µM): 0.973; relative viability (LCLC-103H; first compound 0.1581 µM): 0.832; relative viability (LCLC-103H; first compound 0.5 µM): 0.81; relative viability (Calu-6; first compound 0.005 µM): 0.852; relative viability (Calu-6; first compound 0.01581 µM): 0.921; relative viability (Calu-6; first compound 0.05 µM): 0.937; relative viability (Calu-6; first compound 0.1581 µM): 0.916; relative viability (Calu-6; first compound 0.5 µM): 0.894; relative viability (NCI-H1703; first compound 0.005 µM): 0.472; relative viability (NCI-H1703; first compound 0.01581 µM): 0.369; relative viability (NCI-H1703; first compound 0.05 µM): 0.416; relative viability (NCI-H1703; first compound 0.1581 µM): 0.337; relative viability (NCI-H1703; first compound 0.5 µM): 0.353; relative viability (NCI-H1355; first compound 0.005 µM): 0.993; relative viability (NCI-H1355; first compound 0.01581 µM): 0.951; relative viability (NCI-H1355; first compound 0.05 µM): 0.939; relative viability (NCI-H1355; first compound 0.1581 µM): 0.941; relative viability (NCI-H1355; first compound 0.5 µM): 0.965; relative viability (NCI-H520; first compound 0.01581 µM): 0.985; relative viability (NCI-H520; first compound 0.05 µM): 0.892; relative viability (NCI-H520; first compound 0.1581 µM): 0.738; relative viability (NCI-H520; first compound 0.5 µM): 0.61; relative viability (EBC-1; first compound 0.005 µM): 0.0939; relative viability (EBC-1; first compound 0.01581 µM): 0.118; relative viability (EBC-1; first compound 0.05 µM): 0.113; relative viability (EBC-1; first compound 0.1581 µM): 0.103; relative viability (EBC-1; first compound 0.5 µM): 0.0895

Question: Which relative viability (A549; first compound 0.005 µM) does the source give for CC1(C)CCC(c2ccc(Cl)cc2)=C(CN2CCN(c3ccc(C(=O)NS(=O)(=O)c4ccc(N[C@H](CCN5CCOCC5)CSc5ccccc5)c(S(=O)(=O)C(F)(F)F)c4)cc3)CC2)C1 [Navitoclax] + N=C(N)NC(=N)NCCc1ccccc1 [Phenformin] (partner 250 µM) here?
Answer: 0.146

Question: What about the relative viability (A549; first compound 0.01581 µM) of the same compound?
Answer: 0.19

Question: And the relative viability (A549; first compound 0.05 µM)?
Answer: 0.144

Question: And the relative viability (A549; first compound 0.1581 µM)?
Answer: 0.157

Question: What about the relative viability (A549; first compound 0.5 µM) of the same compound?
Answer: 0.146

Question: What about the relative viability (NCI-H1623; first compound 0.005 µM) of the same compound?
Answer: 0.624

Question: And the relative viability (NCI-H1623; first compound 0.01581 µM)?
Answer: 0.671

Question: And the relative viability (NCI-H1623; first compound 0.05 µM)?
Answer: 0.58

Question: And the relative viability (NCI-H1623; first compound 0.1581 µM)?
Answer: 0.567

Question: What about the relative viability (NCI-H1623; first compound 0.5 µM) of the same compound?
Answer: 0.555

Question: What about the relative viability (LCLC-103H; first compound 0.005 µM) of the same compound?
Answer: 0.342

Question: What about the relative viability (LCLC-103H; first compound 0.01581 µM) of the same compound?
Answer: 0.359

Question: What about the relative viability (LCLC-103H; first compound 0.05 µM) of the same compound?
Answer: 0.314

Question: And the relative viability (LCLC-103H; first compound 0.1581 µM)?
Answer: 0.322

Question: What about the relative viability (LCLC-103H; first compound 0.5 µM) of the same compound?
Answer: 0.338

Question: What about the relative viability (NCI-H1355; first compound 0.005 µM) of the same compound?
Answer: 0.48

Question: What about the relative viability (NCI-H1355; first compound 0.01581 µM) of the same compound?
Answer: 0.467

Question: What about the relative viability (NCI-H1355; first compound 0.05 µM) of the same compound?
Answer: 0.388

Question: What about the relative viability (NCI-H1355; first compound 0.1581 µM) of the same compound?
Answer: 0.436

Question: What about the relative viability (NCI-H1355; first compound 0.5 µM) of the same compound?
Answer: 0.463

Question: And the relative viability (NCI-H520; first compound 0.005 µM)?
Answer: 0.576

Question: And the relative viability (NCI-H520; first compound 0.01581 µM)?
Answer: 0.758

Question: What about the relative viability (NCI-H520; first compound 0.05 µM) of the same compound?
Answer: 0.571

Question: And the relative viability (NCI-H520; first compound 0.1581 µM)?
Answer: 0.507

Question: And the relative viability (NCI-H520; first compound 0.5 µM)?
Answer: 0.616

Question: What about the relative viability (NCI-H522; first compound 0.005 µM) of the same compound?
Answer: 0.633

Question: And the relative viability (NCI-H522; first compound 0.01581 µM)?
Answer: 0.603

Question: And the relative viability (NCI-H522; first compound 0.05 µM)?
Answer: 0.701

Question: And the relative viability (NCI-H522; first compound 0.1581 µM)?
Answer: 0.695

Question: And the relative viability (NCI-H522; first compound 0.5 µM)?
Answer: 0.699
